IC50 data for 43 molecules are collected here from ChEMBL document CHEMBL1137791, “Cell division cycle 7 kinase inhibitors: 1H-pyrrolo[2,3-b]pyridines, synthesis and structure-activity relationships” (J Med Chem, 2009).

Some results are limits rather than exact numbers.

Assay [1] deals with Cell division cycle 7-related protein kinase (Homo sapiens, UniProt O00311). In words: Inhibition of Cdc7-mediated phosphorylation of Mcm2.
Another assay has as its system A2780. In words: Antiproliferative activity against human A2780 cells after 72 hrs by firefly luciferase assay. Format: functional, cell-based. The note with it: A2780, 72 h.
The target of assay [2] is cAMP-dependent protein kinase catalytic subunit alpha (Homo sapiens, UniProt P17612). In words: Inhibition of PKAalpha.
The next assay concerns the target CDK9/cyclin T1 (Homo sapiens, UniProt P50750). In words: Inhibition of Cdk9/cyclinT. Type of assay: protein-complex assay.
Assay [3] concerns the target Cyclin-dependent kinase 2 (Homo sapiens, UniProt P24941). In words: Inhibition of Cdk2/cyclinA.

A word on the IC50: it is the concentration that inhibits the measured activity by half. A high value points to weaker potency.

Chain of Cell division cycle 7-related protein kinase (O00311 whole entry): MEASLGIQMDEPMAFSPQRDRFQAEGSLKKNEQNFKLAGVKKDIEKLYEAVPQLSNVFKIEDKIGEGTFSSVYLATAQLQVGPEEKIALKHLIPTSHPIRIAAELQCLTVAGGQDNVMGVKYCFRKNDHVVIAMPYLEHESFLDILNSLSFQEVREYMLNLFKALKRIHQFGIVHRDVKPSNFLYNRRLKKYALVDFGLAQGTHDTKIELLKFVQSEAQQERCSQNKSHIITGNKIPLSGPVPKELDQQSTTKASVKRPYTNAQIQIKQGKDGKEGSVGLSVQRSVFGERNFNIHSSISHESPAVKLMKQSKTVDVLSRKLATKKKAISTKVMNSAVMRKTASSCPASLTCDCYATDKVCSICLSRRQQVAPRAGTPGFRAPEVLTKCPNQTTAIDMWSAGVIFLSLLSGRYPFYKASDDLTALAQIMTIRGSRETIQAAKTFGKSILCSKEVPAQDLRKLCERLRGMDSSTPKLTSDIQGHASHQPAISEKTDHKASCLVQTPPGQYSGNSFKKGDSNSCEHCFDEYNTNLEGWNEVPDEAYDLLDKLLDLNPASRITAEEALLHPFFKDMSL
Chain of CDK9/cyclin T1 (O60563 whole entry): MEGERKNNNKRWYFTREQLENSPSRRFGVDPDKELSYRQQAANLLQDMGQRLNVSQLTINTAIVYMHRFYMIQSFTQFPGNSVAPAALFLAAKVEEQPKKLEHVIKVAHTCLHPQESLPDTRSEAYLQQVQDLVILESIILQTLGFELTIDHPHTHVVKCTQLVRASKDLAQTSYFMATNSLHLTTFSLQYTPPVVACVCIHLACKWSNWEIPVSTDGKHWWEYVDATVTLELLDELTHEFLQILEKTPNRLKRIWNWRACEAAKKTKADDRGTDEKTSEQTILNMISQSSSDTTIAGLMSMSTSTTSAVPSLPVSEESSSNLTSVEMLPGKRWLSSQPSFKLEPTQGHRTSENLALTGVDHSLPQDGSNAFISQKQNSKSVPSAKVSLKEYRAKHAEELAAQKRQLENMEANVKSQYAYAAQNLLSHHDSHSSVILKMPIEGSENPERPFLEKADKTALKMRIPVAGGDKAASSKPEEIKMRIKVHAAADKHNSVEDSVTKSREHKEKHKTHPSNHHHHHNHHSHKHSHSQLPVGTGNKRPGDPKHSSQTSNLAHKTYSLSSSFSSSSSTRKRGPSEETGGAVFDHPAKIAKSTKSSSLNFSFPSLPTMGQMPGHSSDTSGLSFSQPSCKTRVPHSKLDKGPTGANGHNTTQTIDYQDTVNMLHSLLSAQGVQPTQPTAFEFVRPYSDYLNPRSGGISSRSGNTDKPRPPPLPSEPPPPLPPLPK
Chain of CDK9/cyclin T1 (P50750 whole entry): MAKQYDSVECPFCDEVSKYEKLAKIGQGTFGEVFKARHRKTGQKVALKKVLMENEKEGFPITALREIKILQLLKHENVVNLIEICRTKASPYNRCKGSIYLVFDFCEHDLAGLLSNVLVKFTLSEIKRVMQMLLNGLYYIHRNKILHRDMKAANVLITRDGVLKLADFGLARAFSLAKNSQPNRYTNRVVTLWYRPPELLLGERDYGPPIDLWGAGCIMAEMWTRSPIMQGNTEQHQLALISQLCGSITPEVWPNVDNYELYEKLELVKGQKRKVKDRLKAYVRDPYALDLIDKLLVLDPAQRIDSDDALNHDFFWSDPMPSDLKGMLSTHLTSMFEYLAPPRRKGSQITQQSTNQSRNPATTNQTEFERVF

In the case of `O=C1NC(NCc2cccs2)=N/C1=C\c1c[nH]c2ncccc12`, half-maximal inhibition in assay [1] (IC50) was put at 18 nM.

Regarding `C[C@H](NC1=N/C(=C\c2c[nH]c3ncccc23)C(=O)N1)c1ccccc1`, the IC50 in assay [1] amounted to 21 nM; with A2780, 380 nM. `O=C1NC(c2cccnc2)=N/C1=C\c1c[nH]c2ncccc12` had an IC50 in assay [1] of 60 nM. Consider `O=C1N=C(NCc2ccco2)S/C1=C\c1c[nH]c2ncccc12`, for which the IC50 was found to be 4 nM in assay [1] and 1200 nM in the assay with A2780. As to `CC(C)(C)CCNC1=N/C(=C\c2c[nH]c3ncccc23)C(=O)N1`, the IC50 in assay [1] was determined as 24 nM. On the same count and under the same terms, the result for `O=C1NC(NCCO)=N/C1=C\c1c[nH]c2ncccc12` reads 37 nM. Take `O=C1N=C(NCc2ccccc2)S/C1=C\c1c[nH]c2ncccc12`: the IC50 in assay [2] is < 50 nM; in assay [1], 9 nM; on CDK9/cyclin T1, 15 nM; with A2780, 320 nM; in assay [3], < 50 nM. Regarding `CC(C)NC1=NC(=O)/C(=C/c2c[nH]c3ncccc23)S1`, the values for the IC50 (in assay [1]; with A2780) were 10 nM and 1000 nM, respectively. `C/C(=C1/N=C(NCc2ccccc2)NC1=O)c1c[nH]c2ncccc12`: in assay [1], the IC50 is > 10000 nM. With `O=C1NC(NCc2ccccc2)=N/C1=C/c1c[nH]c2ncc([N+](=O)[O-])cc12`, in assay [1], the IC50 was > 10000 nM. The same measure, in the same setting: the result for `Cc1ccc(C2=N/C(=C\c3c[nH]c4ncccc34)C(=O)N2)cc1` reads 47 nM; that for `O=C1NC(N2CCCCC2)=N/C1=C\c1c[nH]c2ncccc12`, 25 nM; that for `O=C1NC(N2CCOCC2)=N/C1=C\c1c[nH]c2ncccc12`, 47 nM. On the same count and under the same terms, the value for `CC1CCN(C2=N/C(=C\c3c[nH]c4ncccc34)C(=O)N2)CC1` was 105 nM. Still for that read-out and setting: the result for `O=C1NC(c2ccccc2)=N/C1=C\c1c[nH]c2ccccc12` reads > 10000 nM; that for `Cc1ccc(CNC2=N/C(=C\c3c[nH]c4ncccc34)C(=O)N2)cc1`, 162 nM; that for `O=C1NC(NCc2ccc(Cl)cc2)=N/C1=C\c1c[nH]c2ncccc12`, 86 nM.

Take `O=C1NC(NCC2CCCCC2)=N/C1=C\c1c[nH]c2ncccc12`: the 50% inhibitory concentration (IC50) in assay [1] is 64 nM.

Molecule `O=C1NC(NCC23CC4CC(CC(C4)C2)C3)=N/C1=C\c1c[nH]c2ncccc12` gave an IC50 in assay [1] of 128 nM.

`CCNC1=N/C(=C\c2c[nH]c3ncccc23)C(=O)N1` displayed an IC50 in assay [1] of 45 nM. As for `CC(C)NC1=N/C(=C\c2c[nH]c3ncccc23)C(=O)N1`, the IC50 came out at 13 nM in assay [1] and 8800 nM in the assay on A2780. In turn, `O=C1NC(SCc2ccccc2)=N/C1=C\c1c[nH]c2ncccc12` came in with an IC50 against CDK9/cyclin T1 of 6100 nM.

In assay [1], `O=C1NC(NCc2ccccc2)=N/C1=C\c1c[nH]c2ncc([N+](=O)[O-])cc12` had an IC50 of 130 nM. In the case of `Nc1cnc2[nH]cc(/C=C3\N=C(NCc4ccccc4)NC3=O)c2c1`, in assay [1], the half-maximal inhibitory concentration (IC50) worked out at 238 nM. On to `O=C1NC(NC2CCCCC2)=N/C1=C\c1c[nH]c2ncccc12`, for which, in assay [1], the IC50 turned out to be 21 nM. On to `O=C1NC(NCc2cccc(Br)c2)=N/C1=C\c1c[nH]c2ncccc12`, for which, in assay [1], inhibition was half-maximal at 55 nM (IC50). Same read-out and setting: the value for `O=C1NC(NCc2ccc(Br)cc2)=N/C1=C\c1c[nH]c2ncccc12` was 127 nM; that for `O=C1NC(NCC2CCCO2)=N/C1=C\c1c[nH]c2ncccc12` (stereo not given) was 21 nM. On the same count and under the same terms, the value for `CC1CCC(NC2=N/C(=C\c3c[nH]c4ncccc34)C(=O)N2)CC1` (stereo not given) was 13 nM; that for `CC(C)(C)C1CCC(NC2=N/C(=C\c3c[nH]c4ncccc34)C(=O)N2)CC1` (stereo not given) was 207 nM; that for `Cc1cccc(CNC2=N/C(=C\c3c[nH]c4ncccc34)C(=O)N2)c1` was 50 nM.

On to `CCCCCCCNC1=N/C(=C\c2c[nH]c3ncccc23)C(=O)N1`, for which, in assay [1], 247 nM corresponded to half-maximal inhibition (IC50).

Regarding `C[C@H](NC1=NC(=O)/C(=C/c2c[nH]c3ncccc23)S1)c1ccccc1`, the results for the IC50 (in assay [1]; in the assay on A2780) were 26 nM and 42 nM, respectively. `CC1CN(C2=N/C(=C\c3c[nH]c4ncccc34)C(=O)N2)CCO1` (stereo not given) displayed an IC50 in assay [1] of 66 nM. For `Cc1cccc(C2=N/C(=C\c3c[nH]c4ncccc34)C(=O)N2)c1`, it took 30 nM to reach half-maximal inhibition in assay [1] (IC50). The same measure, in the same setting: the value for `CCCCCNC1=N/C(=C\c2c[nH]c3ncccc23)C(=O)N1` was 35 nM; that for `O=C1NC(c2ccccc2)=N/C1=C\c1c[nH]c2ncccc12` was 50 nM; that for `O=C1NC(NC2CC2)=N/C1=C\c1c[nH]c2ncccc12` was 33 nM. For `O=C1NC(NCc2ccccc2)=N/C1=C\c1c[nH]c2ncccc12`, the IC50 in assay [1] came out at 20 nM; at CDK9/cyclin T1 it was 95 nM; in the assay on A2780, 1200 nM.

As to `CC(=O)Nc1cnc2[nH]cc(/C=C3\N=C(NCc4ccccc4)NC3=O)c2c1`, in assay [1], the IC50 was 116 nM. With `O=C1NC(NCc2ccco2)=N/C1=C\c1c[nH]c2ncccc12`, the figures for the IC50 (in assay [1]; in the assay on A2780) were 15 nM and 4000 nM, respectively.

The molecule `O=C1NC(NCc2cccc(Cl)c2)=N/C1=C\c1c[nH]c2ncccc12` registered an IC50 in assay [1] of 39 nM. On the same count and under the same terms, the value for `O=C1NC(NCCc2ccccc2)=N/C1=C\c1c[nH]c2ncccc12` was 18 nM.
